Assay results published in patent US20220401385A1, “Combination Therapy Based on PD-1 Signaling Inhibitors” (Kyoto University, priority 2019, published 2022).

Legend:
T cells = experiment: Function of oxidative phosphorylation in T cells (OCR, Seahorse); type: cell-based
Experimental: The function of oxidative phosphorylation in T cells may be measured as described below. Briefly, the oxygen consumption rate (OCR) of T cells is measured with an extracellular flux analyzer (Seahorse). Baseline OCR and the OCR for the case where carbonyl cyanide-4 (trifluoromethoxy) phenylhydrazone (FCCP), or a reagent that is activated to the maximum extent upon addition of a mitochondrial function terminating agent (oligomycin, Antimycine A/Rotenone: A/R), is added are compared and calculated (Divakaruni A S, Paradyse A, Ferrick D A, Murphy A N, Jastroch M. 2014. Analysis and Interpretation of Microplate-Based Oxygen Consumption and pH data. In Methods in Enzymology, Volume 547, Chapter 16, 309-354).
If, in the above-described measurement method, baseline OCR is increased, spare respiratory capacity (SRC) is increased, or mitochondrial ATP production rate (mitoATP) is increased, it may well be concluded that the function of oxidative phosphorylation in T cells has increased.

[1] = tested on: draining lymph node CD8+ T cells; experiment: Mitochondria-related proteomics of draining lymph node CD8+ T cells of treated mice; type: in vivo
Experimental: T cells were prepared by two methods. For in vivo analysis, 13 days after tumor inoculation and 3 days after the start of therapy, draining lymph nodes from 5 mice were pooled, followed by isolation of CD8^+ T cells. From the isolated CD8^+ T cells, three samples each consisting of 1×10^6 cells were prepared and used for analysis. For in vitro experiments, 2×10^5 CD8^+ T cells stimulated with 0.2 μM spermidine for 1 hour were used. For mass spectrometry analysis, a Tandem Mass Tag (TMT) system or a Data Independent Acquisition (DIA) system was used. In the analysis of in vivo CD8^+ T cells (FIG. 3), those proteins which increased by 1.5-fold or more or decreased by 0.6-fold or less were extracted.

CD8+ T cells = experiment: Tumor-infiltrating CD8+ T cells in aged MC38 mice; type: in vivo; settings: 56-week old mice; combination with SPD; 13 days after tumor inoculation
Experimental: FIG. 7 MC38 cells (5×10^5) were intradermally inoculated into 56-week old mice, which were treated along with the treatment schedule described in FIG. 1. PD-L1 antibody (2 mg/kg) and SPD (2 mg/kg) were used. a) Tumor growth curve and survival curve are shown. b) The frequency of CD8^+ T cells among lymphocytes infiltrating into tumor (in CD45^+ gate) and the absolute number of CD8^+ T cells per mg tumor 13 days after tumor inoculation are shown. c) CD8^+ T cells were isolated from spleen cells on the same schedule as b) and cultured for 20 hours under the stimulation with CD3/CD28. Cell proliferation was examined by means of ^3H uptake. d) CD8^+ T cells were isolated from draining lymph nodes on the same schedule as b) and glycolytic pathway-derived or mitochondrial metabolism-derived ATP production was calculated by Seahorse. e) Spare respiratory capacity (SRC) was also calculated in the experiment (d).
It is known from mouse model experiments that the effect of PD-1 inhibitory antibody therapy decreases in aged mice due to their decreased immunity. […] CD8^+ T cells were isolated from draining lymph nodes 13 days after tumor inoculation and glycolytic pathway-derived or mitochondrial metabolism-derived ATP production was calculated by Seahorse. Spare respiratory capacity (SRC) was also calculated. […]

For `NCCCCNCCCN` [SPD, spermidine], which “function of oxidative phosphorylation in T cells” value (T cells) is on record?
The value was “increased”.

What about the “levels of electron transport chain related proteins (Cytochrome, NADH dehydrogenase, ATPase)” value ([1]; combined therapy compared to PD-1 inhibition alone) of the same compound?
The value was “remarkably increased”.

And the “number of mitochondria-related proteins whose level changed significantly” value ([1]; out of 203 proteins, combined therapy compared to PD-1 inhibition alone)?
Its value is 184.

And the “pathway analysis: proteins associated with oxidative phosphorylation and metabolic pathways such as glycolysis” value ([1]; proteins increased under combined therapy)?
The value was “occupied top positions”.

What about the “number of CD8+ T cells in lymphocytes infiltrating into tumor” value (CD8+ T cells) of the same compound?
The value was “increase”.
